Drawing on patent publication US5776919A, “Potentiators of antimicrobial activity” (priority 1996, dated 1998), this text covers MIC and MBC for ten compounds.

In brackets after ≈: the same amount, converted by molar mass. Several values for one entry are separate records, joined by “and”; a condition that tells them apart may be missing. Identical values can stand only once. Like-named read-outs stand apart in the source and are kept apart here.

Format in all cases: cell-based
For assay [1], the system named is methicillin-resistant Staphylococcus aureus (ATCC 33591). In words: MIC determination by broth dilution. The protocol: (§1) The MICs were determined by the broth dilution method. […] The assays were performed in duplicate.
On the technique in general: In broth dilution the organism is exposed to a series of concentrations in liquid medium.

Assay [2] deals with Candida albicans (ATCC 10231). The assay can be described thus: MIC determination by broth dilution. The protocol:
as §1

In assay [3] the test system is Escherichia coli (ATCC 10536). In words: MIC determination by broth dilution. The protocol: as §1
The test system of assay [4] is Pseudomonas aeruginosa (ATCC 10145). In words: MIC determination by broth dilution. The procedure:
as §1

Assay [5] has as its system Candida albicans (ATCC 10231). The assay can be described thus: MBC determination. The protocol:
(§2) After 24 hours of incubation, the colonies were counted.

For assay [6], the system named is Escherichia coli (ATCC 10536). In words: MBC determination. The procedure: as §2
Assay [7] deals with Pseudomonas aeruginosa (ATCC 10145). The assay can be described thus: MBC determination. The protocol: as §2
Assay [8] has as its system methicillin-resistant Staphylococcus aureus (ATCC 33591). In words: MBC determination. The procedure:
as §2

The mark [9] stands for this setting: Staphylococcus aureus, ATCC 33591 / MRSA, 48 h, compound alone, MRSA ATCC 33591, 2 days at 37° C., read-out: MIC.
Setting [10] is: compound alone, C. albicans ATCC 10231, 2 days at 37° C.
[11] abbreviates: compound alone, E. coli ATCC 10536, 2 days at 37° C.
Setting [12] is: compound alone, P. aeruginosa (ATCC 10536 [sic]), 2 days at 37° C.
The mark [13] stands for this setting: compound alone, MRSA ATCC 33591, 2 days at 37° C.
Setting [14] is: compound alone, C. albicans ATCC 10231.
The mark [15] stands for this setting: compound alone, E. coli ATCC 10536.
Setting [16] is: compound alone, P. aeruginosa (ATCC 10536 [sic]).
[17] abbreviates: compound alone, MRSA ATCC 33591.

One may read the MIC as the lowest concentration that inhibits growth of the organism. On to `COc1cccc(OC)c1C(=O)N[C@@H]1C(=O)N2[C@@H]1SC(C)(C)[C@@H]2C(=O)O` [Methicillin, methicillin, reference compound], for which the MIC in assay [1] (setting [9]) was determined as 800 µg/mL (≈ 2.1 mM).
Take `CCCCCCCCCCCO` [Undecanol, n-undecanol]: the MIC in assay [1] (setting [9]) turned out to be 50 µg/mL (≈ 0.29 mM).
As to polymyxin B [reference compound], the MIC amounted to 800 µg/mL in assay [2] (setting [10]), 3.13 µg/mL in assay [3] (setting [11]), 6.25 µg/mL in assay [4] (setting [12]) and 800 µg/mL in assay [1] (setting [13]). Moreover, the MBC worked out at 1600 µg/mL in assay [5] (setting [14]), 3.13 µg/mL in assay [6] (setting [15]), 6.25 µg/mL in assay [7] (setting [16]) and 800 µg/mL in assay [8] (setting [17]).
Take `c1ccc2[nH]ccc2c1` [Indole, indole]: the MIC in assay [2] (Candida albicans, ATCC10231, 48 h) is 400 µg/mL (≈ 3.41 mM); in assay [3] (Escherichia coli, ATCC10536, 48 h) it was 800 µg/mL (≈ 6.83 mM); in assay [4] (Pseudomonas aeruginosa, ATCC 10145 / ATCC 10536, 48 h), 400 µg/mL (≈ 3.41 mM); in assay [1] (Staphylococcus aureus, ATCC 33591 / MRSA, 48 h) it was 800 µg/mL (≈ 6.83 mM). Also, the MBC in assay [5] (Candida albicans, ATCC10231) came to 800 µg/mL (≈ 6.83 mM); in assay [6] (Escherichia coli, ATCC10536) it was 800 µg/mL (≈ 6.83 mM); in assay [7] (Pseudomonas aeruginosa, ATCC 10145 / ATCC 10536) it was 800 µg/mL (≈ 6.83 mM); in assay [8] (Staphylococcus aureus, ATCC 33591 / MRSA), 800 µg/mL (≈ 6.83 mM).
Consider polymyxin E [reference compound], for which the MIC in assay [2] (setting [10]) came out at 1600 µg/mL; in assay [3] (setting [11]), 3.13 µg/mL; in assay [4] (setting [12]), 6.25 µg/mL. Besides, the MBC in assay [5] (setting [14]) came out at 1600 µg/mL; in assay [6] (setting [15]), 6.25 µg/mL; in assay [7] (setting [16]), 12.5 µg/mL.
As to `CCCCCCCCCCCCO` [Dodecanol, n-dodecanol], in assay [1] (setting [9]), the MIC worked out at 80 µg/mL (≈ 0.429 mM).
For the compound `CCC/C=C/C=O` [2-Hexenal, t-2-hexenal], the MIC in assay [3] (setting [11]) was 200 µg/mL and 400 µg/mL; in assay [4] (setting [12]) it was 200 µg/mL (≈ 2.04 mM); in assay [1] (setting [13]), 400 µg/mL (≈ 4.08 mM). For the same compound, the MBC in assay [6] (setting [15]) came out at 400 µg/mL (≈ 4.08 mM); in assay [7] (setting [16]), 400 µg/mL (≈ 4.08 mM); in assay [8] (setting [17]), 800 µg/mL (≈ 8.15 mM).
`C=CC/C=C\C/C=C\CCCCCCCc1cccc(O)c1C(=O)O` [Anacardic Acid (15:3)]: in assay [1] (setting [13]), the MIC worked out at 6.25 µg/mL (≈ 0.0182 mM).
For `CCCCCCCCCCCCCO` [Tridecanol, n-tridecanol], the MIC in assay [1] (setting [9]) turned out to be 50 µg/mL (≈ 0.25 mM).
In turn, Anacardic Acid showed an MIC in assay [1] (setting [13]) of 6.25 µg/mL.
